Test results reported in patent US20210223237A1, “COMPOSITIONS AND METHODS FOR STUDYING DRUG METABOLISM” (Boehringer Ingelheim International GmbH, priority 2020, published 2021).
Where two headings read alike, the source gives them in different places.

Legend:
in vitro [1] = details: human, microsomes
[2] = Non-specific binding of compounds to magnetizable beads alone; details: 30 min incubation of beads (5.3×10^9 beads), bioanalysis of supernatant
[3] = HLM 0.005 mg/ml
in vitro [4] = details: human, pH 7.4
in vitro [5] = details: human, microsomes; remark: listed apart in the source
[6] = Microsomal binding (fu,mic) using HLM-beads; details: HLM-beads; HLM 1.0 mg/ml; compound 1.0 μM; (SD)
[7] = in vivo; cited from earlier work
CYP3A = assay: CYP3A-mediated midazolam 1′hydroxylation kinetics in HLM suspensions vs HLM-beads; design: Km, times higher with HLM-beads than with HLM suspensions: unit not given beside the values; details: for microsomal CLint / Km: human; for microsomal CLint: pH 7.4; for Km: pH 7.4, probe midazolam (1′-hydroxylation)
[8] = human, microsomes, 6 h, 1 μM
[9] = cited from earlier work

| SMILES | fraction unbound at 5 min, 1 μM (in vitro [1]) | non-specific binding to the beads [2] | depletion of parent midazolam ([3]; HLM suspensions, no new HLM added, up to 160 min) | metabolism of midazolam on exchange of used HLM-beads with fresh HLM-beads ([3]; HLM-bead relay every 20 minutes) | CLhep predicted at 1 μM (in vitro [4]) [mL/min/kg] | microsomal CLint at 1 μM (in vitro [4]) [µL/min/mg] | fraction unbound at 6 h, 1 μM (in vitro [5]) | fu,mic [6] | blood clearance reported in the literature [7] [mL/min/kg] | Vmax (CYP3A; HLM suspensions) [pmol/min/mg] | Vmax (CYP3A; HLM-beads) | Km, times higher with HLM-beads than with HLM suspensions (CYP3A; HLM-beads vs HLM suspensions) [×] | microsomal CLint (CYP3A; human liver microsomes (suspension)) [µL/min/mg] | Km (CYP3A; human liver microsomes bound to beads (HLM-beads)) [µM] | Km (CYP3A; human liver microsomes in suspension (no beads)) [µM] | microsomal CLint (CYP3A) [µL/min/mg] | fu,mic [8] | pKa [9] |
| --- | --- | --- | --- | --- | --- | --- | --- | --- | --- | --- | --- | --- | --- | --- | --- | --- | --- | --- |
| Cc1ncc2n1-c1ccc(Cl)cc1C(c1ccccc1F)=NC2 [Midazolam, midazolam] | 0.76 | not observed | No perceptible depletion | continued metabolism | 9.47 | 842 | 0.98 | 0.53 (0.02) | 8.59 | 2002 ± 66 | 4350 ± 249^sig pmol/min/mg | ~3 | 2830 | 2.04 ± 0.23 | 0.612 ± 0.086 | 2130 | – | – |
| CC(=O)CC(c1ccccc1)c1c(O)c2ccccc2oc1=O (stereo not shown) [Warfarin, warfarin] | – | – | – | – | – | – | 0.94 | – | – | – | – | – | – | – | – | – | 0.86 (0.08) | 5.0 |
